From article PMC4386669 (Cell reports, 2014)
Where two headings read alike, the source gives them in different places.

Assays:
ES-6 cells [1] = experiment: Dose-response cytotoxicity in ES-6 cells; format: cell-based; conditions: for Sensitivity (cytotoxicity): 144 hours
ES-8 EWS cells = experiment: Single-cell alkali gel electrophoresis; format: cell-based; conditions: after 12 hours of exposure to the PARPi
Ewing sarcoma cell lines [2] = experiment: Dose-response cytotoxicity in Ewing sarcoma cell lines; format: cell-based
[3] = Plasma and tumor pharmacokinetics in mice with orthotopic xenografts; format: in vivo, CD1-nude mice; conditions: for concentration at 12 h: CD1-nude, mouse, orthotopic xenograft tumor, po; for Murine equivalent dose (most appropriate dose for twice-daily oral administration in mice): from plasma AUC in mice compared with plasma PK data in patients
EWS cell lines = experiment: Drug-pair cytotoxicity with response surface model
[4] = ref Morton et al., 2005, 2000; cited from earlier work
SAOS2 = experiment: Dose-response cytotoxicity in SAOS2; format: cell-based
[5] = TMZ to 10 mg/kg in mice; BMN-673 to 0.1 mg/kg (of the MED)
ES-6 cells [6] = conditions: 72 hours, ref Garnett et al., 2012; cited from earlier work
Ewing sarcoma cell lines [7] = conditions: ref Brenner et al., 2012, Garnett et al.; cited from earlier work
ES-6 cells [8] = conditions: later timepoints, ref Garnett et al., 2012; cited from earlier work
PARP1 = PARP1 (Homo sapiens, UniProt P09874); conditions: 10 micromolar PARPi + 0.01% MMS
Sequence of PARP1 (P09874 whole entry): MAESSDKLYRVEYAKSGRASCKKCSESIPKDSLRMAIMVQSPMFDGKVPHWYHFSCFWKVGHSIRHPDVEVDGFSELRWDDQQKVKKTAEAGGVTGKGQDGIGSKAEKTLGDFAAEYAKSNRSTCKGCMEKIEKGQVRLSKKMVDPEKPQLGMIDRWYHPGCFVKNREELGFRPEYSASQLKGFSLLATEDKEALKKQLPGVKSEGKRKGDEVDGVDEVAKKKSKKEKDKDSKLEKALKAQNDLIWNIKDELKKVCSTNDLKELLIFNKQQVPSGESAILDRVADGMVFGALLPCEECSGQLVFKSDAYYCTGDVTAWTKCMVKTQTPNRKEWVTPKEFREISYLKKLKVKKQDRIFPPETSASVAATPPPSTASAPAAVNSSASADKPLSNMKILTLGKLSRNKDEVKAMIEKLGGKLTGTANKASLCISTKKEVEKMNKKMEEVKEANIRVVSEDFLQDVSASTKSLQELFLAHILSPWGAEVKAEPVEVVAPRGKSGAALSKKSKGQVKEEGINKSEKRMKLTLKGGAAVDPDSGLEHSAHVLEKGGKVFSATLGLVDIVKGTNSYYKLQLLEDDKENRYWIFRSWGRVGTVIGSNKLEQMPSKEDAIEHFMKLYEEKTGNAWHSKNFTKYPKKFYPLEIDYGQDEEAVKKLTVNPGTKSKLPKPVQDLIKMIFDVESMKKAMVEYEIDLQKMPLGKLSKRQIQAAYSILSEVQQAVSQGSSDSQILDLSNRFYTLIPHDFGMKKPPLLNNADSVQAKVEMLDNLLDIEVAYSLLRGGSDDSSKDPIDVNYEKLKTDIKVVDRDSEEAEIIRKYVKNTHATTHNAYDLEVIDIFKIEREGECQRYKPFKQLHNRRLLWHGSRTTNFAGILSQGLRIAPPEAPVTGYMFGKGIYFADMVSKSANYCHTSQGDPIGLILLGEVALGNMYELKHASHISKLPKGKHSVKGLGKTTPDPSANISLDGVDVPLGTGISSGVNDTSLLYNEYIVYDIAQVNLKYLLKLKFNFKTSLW

[9] = EW-8, ES-8, and ES-1 cells, 72 hours of exposure
[10] = translocation-positive EWS cell lines, RSM

With `Cn1ncnc1[C@H]1c2n[nH]c(=O)c3cc(F)cc(c23)N[C@@H]1c1ccc(F)cc1` [BMN-673] the “Sensitivity (cytotoxicity)” value (ES-6 cells [1]) was “resistant”, the “Basal level of DNA damage (comet tail moment)” value (ES-8 EWS cells; 1 or 10 μM) was “elevated” and the “Sensitivity (cytotoxicity)” value (Ewing sarcoma cell lines [2]; [9]) was “sensitive”. For the same compound, the concentration at 12 h [3] was at least 15 nM and the “Murine equivalent dose (most appropriate dose for twice-daily oral administration in mice)” value (from here on “Murine equivalent dose”) [3] was 0.125 mg/kg.
In the case of `CCc1c2c(nc3ccc(O)cc13)-c1cc3c(c(=O)n1C2)COC(=O)[C@]3(O)CC` [SN-38], the “Concentration at which PARPi is significantly potentiated” value (EWS cell lines; [10]) is listed as 1 to 10 nM, the “Potency compared to other EWS cell lines” value (ES-6 cells [1]) is listed as “significantly lower potency” and the “Cmax and AUC of SN-38 in mouse plasma versus human plasma” value [4] is listed as “slightly higher”. It also gave an EC50 (SAOS2) of under 100 nM and an EC50 (Ewing sarcoma cell lines [2]; 144 hours, all EWS cell lines tested excluding ES-6) of under 10 nM.
In the case of `Cn1nnc2c(C(N)=O)ncn2c1=O` [TMZ, temozolomide], the “Fold higher concentration of TMZ required for the same level of potentiation as IRN” value (EWS cell lines; potentiation of PARPi-mediated killing of EWS cells) is reported as ≥ 1,000 fold, the “Concentration required for the same level of PARPi potentiation” value (EWS cell lines; [10]) is reported as 10 to 100 µM and the “Dose reduction needed to make the BMN-673 + TMZ combination tolerable” value [5] is reported as 70%. The EC50 (Ewing sarcoma cell lines [2]; 144 h) was over 100000 nM.
For `O=C(c1cc(Cc2n[nH]c(=O)c3ccccc23)ccc1F)N1CCN(C(=O)C2CC2)CC1` [olaparib], the “Sensitivity (cytotoxicity)” value (ES-6 cells [6]) is listed as “resistant”, the “Potency compared to other EWS cell lines” value (ES-6 cells [1]) is listed as “significantly lower potency” and the “Basal level of DNA damage (comet tail moment)” value (ES-8 EWS cells; 10 μM) is listed as “elevated”. For the same compound, the “Sensitivity of EWS cell lines” value (Ewing sarcoma cell lines [7]) was “sensitive”, the “Sensitivity (cytotoxicity)” value (Ewing sarcoma cell lines [2]; [9]) was “sensitive” and the “Sensitivity in colony assays” value (ES-6 cells [8]) was “some sensitivity”. The concentration at 12 h [3] was at least 90 nM and the “Murine equivalent dose” value [3] was 50 mg/kg.
For `C[C@]1(c2nc3c(C(N)=O)cccc3[nH]2)CCCN1` [veliparib], the “Sensitivity (cytotoxicity)” value (ES-6 cells [1]) was “resistant”, the “PARP trapping potential (rank order)” value (PARP1) was “BMN-673 > olaparib > veliparib” and the “Sensitivity (cytotoxicity)” value (Ewing sarcoma cell lines [2]; all EWS cell lines except ES-6, 144 hours) was “marginal”. The concentration at 12 h [3] was at least 50 nM and the “Murine equivalent dose” value [3] was 12.5 mg/kg.
